Data published in US20240034761A1, “REGENERATION OF MAMMALIAN TISSUES USING SYNTHETIC IMMODULINS” (priority 2022, published 2024).
Marks after values point to notes of the source that are not given here. Square brackets hold non-standard residues; d marks the D form. Ends that are not written are not given here. Peptide text beside a SMILES is read from it.

Tests used:
[1] = PIP-binding membrane assay (Membrane Lipid Strips); parameters: key: —: −−− no binding; +++ strong binding; conditions: 400 ng peptide
Experimental: N-terminally biotinylated versions of the peptides listed below were used in various assays listed in the examples. For the two types of phosphatidylinositon phosphate (PIP)-binding assays, imm1-imm6 peptides were used.
In the PIP-binding membrane assay, 400 ng of each peptide was bound to Membrane Lipid Strips (Catalog # P-6002, Echelon Biosciences, Salt Lake City, UT) and developed according to the manufacturer's instructions. Binding to PIPs was as follows (−−− no binding; +++ strong binding): […]

[2] = Plate binding of FITC-labelled hyaluronic acid to immobilised biotinylated peptides; conditions: 400 ng peptide/well, 1 ug FITC-HMW-HA, PBS; normalized to immX3 peptide binding = 100
Experimental: (§1) Effects of pH, PIP2 and size classes: Streptavidin-coated 96-well plates (G-Biosciences, St. Louis, MO) were pre-loaded with biotinylated peptides [see Example 1] at 400 ng/well, at room temperature for 60 minutes. The plate was washed with PBS buffer and then 1 ug FITC-labelled heparin or hyaluronic acid (FITC-HMW-HA) in 100 uL PBS buffer was added per well (all tests done in quadruplicate). Incubation proceeded for 90 minutes at room temperature, followed by two PBS washes. The plate was read in a standard laboratory fluorometer (488/525 nm exitation/[…]) and the counts normalized for immX3 peptide binding=100. Values statistically above background are shown in bold font. **p<0.05 versus immX3AVD.

[3] = test system: THP1-Dual monocyte reporter cell line; assay: THP1-Dual myeloid cell differentiation assay (PMA protocol); type: cell-based, human; conditions: PMA 24 h, then peptide 0.33 uM or 0.66 uM 24 h; for CD169+ (AU) / Clec12A(AU): relative to immX3AVD = 100; for CCL22: culture supernatant
Experimental: (§2) Mammalian cell differentiation assays employed the THP1-Dual monocyte reporter cell line (Invivogen Inc, San Diego, CA) seeded at 2×10e5 cells per well in 96-well plates and cultured at 37 degrees C. in RPMI-1640 growth medium plus 10% fetal bovine serum and 1% penicillin/streptomycin. Cells were subsequently treated for 24 hours with 100 ng/ml Phorbol 12-myristate 13-acetate (PMA protocol; Cayman Chemical Company, Ann Arbor, MI). Peptide (0.33 uM or 0.66 uM, as indicated) was then added, and incubation continued for an additional 24 hours. Culture supernatants were assayed for CCL22. Plates with adherent cells were washed with PBS and assayed for immunoreactivity of surface markers such as CD169, Clec9a or Clec12a using fuorescent tag- or biotin-labeled anti-human antibodies purchased from Miltenyi Biotec (Auburn, CA) and the secondary detection reagent recommended by the manufacturer.

[4] = Plate binding of FITC-labelled heparin to immobilised biotinylated peptides; conditions: 400 ng peptide/well, 1 ug FITC-heparin, PBS; normalized to immX3 peptide binding = 100
Experimental: as §1

[5] = test system: C2C12 myoblastic cell line; assay: C2C12 myoblast differentiation, creatine kinase; type: cell-based; conditions: 0.66 uM peptide, 96 hours; helper none; relative to immX3AVD = 100
Experimental: Differentiation assays employed the C2C12 myoblastic cell line (ATCC, Manassas, VA) seeded at 2×10e5 cells per well in 96-well plates and cultured at 37 degrees C. in DMEM growth medium plus 10% fetal bovine serum and 1% penicillin/streptomycin. For differentiation, 10% fetal bovine serum was replaced with 2% horse serum. 0.66 uM peptide was then added, and incubation continued for an additional 96 hours. Plates with adherent cells were washed with PBS, lysed with Lytic-M buffer (Sigma Chemical Company, St. Louis, MO) and the lysates were assayed for creatine kinase using a kit purchased from Bioassay Systems (Cat. #ECPK-100, Hayward, CA). Effects were visually confirmed with microscopy tracking myotube formation. Results were expressed as units per milliliter relative to the control immX3AVD peptide, and p values were also calculated and shown relative to control immX3AVD peptide (** p<0.05 versus immX3AVD control; avg±SD).

[6] = test system: Primary human T-cells pre-selected for recognizing GAD65 peptide antigen; assay: GAD65-specific primary T-cell differentiation on peptide-treated THP1-Dual cells; type: cell-based; conditions: peptide 0.66 uM, GAD65 1 ug/ml; for FoxP3 (AU): cell extracts, immX3AVD = 100
Experimental: as §2
Another non-myeloid lineage was also tested. Primary human T-cells pre-selected for recognizing GAD65 peptide antigen, and the peptide antigen itself were purchased from Cellero LLC (Memphis, TN). THP1-Dual cells were treated with both GAD65 peptide antigen (1 ug/ml) and immodulin peptide (0.66 uM) using the protocol described in Example 2. After completion of the myeloid cell differentiation step (24 hours), supernatants were collected and 100,000 primary T-cells were added to each well in RPMI-1640 medium (100 uL per well). Plates were incubated for an additional 96 hours and cell extracts were prepared using CellLytic-M reagent (Sigma Chemical Co., St Louis, MO). Supernatants were assayed for CCL22, IL-10 and TGFbeta, and cell extracts assayed for FoxP3, all by ELISA using reagents from R&D Systems, Minneapolis, MN. The results are shown in the table below (**p<0.05 vs immX3AVD, set to=100): […]

[7] = Second binding experiment: FITC-HMW-HA binding with holotransferrin, pH and cold competitors; parameters: key to FITC-HMW-HA binding, +cold LMW-HA / FITC-HMW-HA binding, +cold HMW-HA: fluorescence counts normalized to peptide binding control = 100; conditions: holotransferrin 10 ug/well; for FITC-HMW-HA binding, +cold HMW-HA: HMW-HA 10 ug/well; for FITC-HMW-HA binding, +cold LMW-HA: LMW-HA hexamer 10 ug/well; for FITC-HMW-HA binding, +cold PIP2: excess PIP2 500 ng/well
Experimental: as §1
A second binding experiment was done as above, but using either 6 mM sodium phosphate buffer pH 7.4 or sodium citrate buffer pH 5.2 in the presence of FITC-HMW-HA (1.5 ug/well), holotransferrin (10 ug/well) and excess PIP2 (500 ng/well), LMW-HA (hexamer; 10 ug/well) or HMW-HA (10 ug/well). **p<0.05 versus peptide binding control (=100);

Compound	Binding to Phosphatidylinositol [1]	Binding to PtdIns(3,4,5)P [PIP3] [1]	Binding to PtdIns(4)P [PIP1] [1]	Hyaluronate binding (fluorescence counts) [2]	CD169+ (AU) [3]	Heparin binding (fluorescence counts) [4]	Creatine Kinase Act. [5]	also measured
CSCC[C@H](NC(=O)[C@H](CCCCN)NC(=O)[C@H](CS)NC(=O)[C@H](CCC(N)=O)NC(=O)[C@H](CCCCN)NC(=O)[C@H](CC(C)C)NC(=O)[C@H](CC(N)=O)NC(=O)[C@H](Cc1ccc(O)cc1)NC(=O)[C@H](CC(C)C)NC(=O)CNC(=O)[C@H](Cc1c[nH]cn1)NC(=O)[C@@H](N)CCCCN)C(=O)N[C@@H](CO)C(=O)N[C@@H](CC(C)C)C(=O)N[C@@H](CC(N)=O)C(=O)NCC(=O)N[C@@H](CCC(N)=O)C(=O)N[C@@H](CCCNC(=N)N)C(=O)NCC(=O)N[C@@H](CCC(=O)O)C(=O)N[C@@H](CS)C(=O)N[C@@H](Cc1c[nH]c2ccccc12)C(=O)O [imm2]	—	—	—	3.1 ± 9.8	3.0 ± 0.5 AU	27.4 ± 22.9		Binding to PtdIns(4,5)P [PIP2] [1]: —
KKGFYKKKQCRPSKGRKRGFCW(dA)(dV)(dD) (KKGFYKKKQCRPSKGRKRGFCW[dA][dV][dD]; cysteine pairing not given here) [immX3dAdVdD]				104.2 ± 14.7	183.3 ± 6.4 AU	55.5 ± 5.7**	132.8 ± 5.2** units per milliliter	Clec12A(AU) [3]: 106.6 ± 5.2 AU
KKGFYKKKQCRPSKGRKRGFCW(dS)(dV)(dD) (KKGFYKKKQCRPSKGRKRGFCW[dS][dV][dD]; cysteine pairing not given here) [immX3dSdVdD]					145.7 ± 9.3 AU		155.6 ± 14.1** units per milliliter	FoxP3 (AU) [6]: 176.6 ± 8.0** AU; CCL22 ([6]; supernatant): 77.8 ± 2.0 pg/mL; IL-10 ([6]; supernatant): 1534 ± 176.4 pg/mL; TGFb ([6]; supernatant): 87.6 ± 10.7 pg/mL
RNGNFHPKQCHPALDGQRGKCWAVD [immX4AVD]				61.1 ± 34.1	1.0 ± 0.3 AU	7.3 ± 17.1		
NGLLKIKKGFYKKKQCRPSKGRKRGFCWAVD [immX3K4e + 1]					128.4 ± 1.4 AU		178.4 ± 7.6** units per milliliter	
N=C(N)NCCC[C@H](NC(=O)[C@H](CCCNC(=N)N)NC(=O)[C@H](CCC(N)=O)NC(=O)CNC(=O)[C@H](CCC(N)=O)NC(=O)[C@H](CO)NC(=O)[C@H](CO)NC(=O)[C@H](CCCNC(=N)N)NC(=O)[C@H](CS)NC(=O)[C@H](CCC(N)=O)NC(=O)[C@H](CCCNC(=N)N)NC(=O)[C@H](CCCCN)NC(=O)[C@H](CCCNC(=N)N)NC(=O)[C@H](Cc1ccc(O)cc1)NC(=O)[C@H](Cc1ccccc1)NC(=O)CNC(=O)[C@H](CCCNC(=N)N)NC(=O)[C@@H](N)Cc1c[nH]cn1)C(=O)NCC(=O)N1CCC[C@H]1C(=O)N[C@@H](CS)C(=O)N[C@@H](Cc1c[nH]c2ccccc12)C(=O)O [imm6] (H-HRGFYRKRQCRSSQGQRRGPCW-OH)	—	—	—	44.9 ± 14.1**	19.9 ± 2.3 AU	97.2 ± 17.3		
CSCC[C@H](NC(=O)[C@H](CO)NC(=O)[C@@H](NC(=O)[C@H](CCC(=O)O)NC(=O)[C@H](CS)NC(=O)[C@H](CCC(N)=O)NC(=O)[C@H](CCCNC(=N)N)NC(=O)[C@H](CO)NC(=O)[C@H](Cc1c[nH]cn1)NC(=O)[C@H](Cc1ccc(O)cc1)NC(=O)[C@H](Cc1ccccc1)NC(=O)CNC(=O)[C@H](CC(N)=O)NC(=O)[C@@H](N)CCCCN)[C@@H](C)O)C(=O)N[C@@H](CC(=O)O)C(=O)NCC(=O)N[C@@H](CCC(=O)O)C(=O)N[C@@H](C)C(=O)NCC(=O)N[C@@H](CC(C)C)C(=O)N[C@@H](CS)C(=O)N[C@@H](Cc1c[nH]c2ccccc12)C(=O)O [imm1] (H-KNGFYHSRQCETSMDGEAGLCW-OH)	—	—	—		3.1 ± 2.2 AU			Binding to PtdIns(4,5)P [PIP2] [1]: —
RKGFYKRKQCKPSRGRKRGICWAVD [immX5AVD]				113.9 ± 15.7	100.9 ± 3.5 AU	68.7 ± 26.2		FITC-HMW-HA binding, CONTROL ([7]; pH 5.2): 66.6 ± 7.2**; FITC-HMW-HA binding, +cold HMW-HA ([7]; pH 5.2): 9.6 ± 6.5**; FITC-HMW-HA binding, +cold LMW-HA ([7]; pH 5.2): 76.8 ± 5.9; FITC-HMW-HA binding, +cold PIP2 ([7]; pH 5.2): 52.8 ± 4.0**; FITC-HMW-HA binding, +cold HMW-HA ([7]; pH 7.4): 22.6 ± 8.8**; FITC-HMW-HA binding, +cold LMW-HA ([7]; pH 7.4): 94.9 ± 11.4; FITC-HMW-HA binding, +cold PIP2 ([7]; pH 7.4): 53.7 ± 2.1**; FITC-HMW-HA binding, CONTROL ([7]; pH 7.4, peptide binding control = 100): 100.0 ± 7.6; FoxP3 (AU) [6]: 14.8 ± 4.3** AU; CCL22 (pg/ml) ([6]; supernatant): 58.7 ± 2.7** pg/ml; IL-10 (pg/ml) ([6]; supernatant): 870 ± 8.2** pg/ml; TGFb (pg/ml) ([6]; supernatant): 52.8 ± 7.4** pg/ml; CCL22 [3]: 228.6 ± 8.1 pg/mL
SLNPEWNETKGFYKKKQCRPSKGRKRGFCW(dA)(dV)(dD) (SLNPEWNETKGFYKKKQCRPSKGRKRGFCW[dA][dV][dD]; cysteine pairing not given here) [immX3K1dAdVdD]				101.9 ± 16.4	249.3 ± 13.9 AU	56.0 ± 7.3**		Clec12A(AU) [3]: 321.9 ± 25.6 AU; CCL22 [3]: 135.8 ± 24.2 pg/mL
